Measurements taken from US12421249B2, “Inhibitors of APOL1 and methods of using same” (Vertex Pharmaceuticals Incorporated, priority 2020, dated 2025).

Target: T1, APOL1 (Homo sapiens, UniProt O14791)
T1 sequence (O14791 1-398 S342G/I384M): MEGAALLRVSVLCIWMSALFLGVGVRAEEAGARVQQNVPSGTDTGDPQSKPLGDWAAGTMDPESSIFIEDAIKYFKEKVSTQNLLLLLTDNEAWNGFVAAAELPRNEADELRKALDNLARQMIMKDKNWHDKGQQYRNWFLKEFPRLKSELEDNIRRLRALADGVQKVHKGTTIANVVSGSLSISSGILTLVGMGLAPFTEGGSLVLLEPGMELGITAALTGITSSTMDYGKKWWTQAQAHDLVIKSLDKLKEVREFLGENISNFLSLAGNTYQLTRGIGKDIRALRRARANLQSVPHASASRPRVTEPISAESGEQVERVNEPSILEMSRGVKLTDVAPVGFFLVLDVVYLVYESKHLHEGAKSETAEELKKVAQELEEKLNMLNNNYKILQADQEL
Assay: Multi-Tox Assay (MultiTox-Fluor Multiplex Cytotoxicity Assay in tet-inducible APOL1 T-REx-HEK293 cells; Table 46 does not say which APOL1 variant G0/G1/G2)
Assay type: cell-based
Conditions: APOL1 variant not given; for IC50: IP50 = IC50 for cell proliferation

| Structure (SMILES) | Multi-Tox Assay Max Activity (%) | IC50 [nM] | IC90 [nM] |
| --- | --- | --- | --- |
| COCCOCCn1cc([C@@H]2C[C@]3(C[C@H](C)N2)OCC(F)(F)c2cc(Cl)sc23)nn1 [Compound 340] | 98.0 | 50 to 500 | – |
| C[C@H]1C[C@@]2(C[C@@H](c3cn(CC#N)nn3)N1)OC[C@@H](O)c1cc(Cl)sc12 [Compound 255] | 100.0 | 50 to 500 | – |
| C[C@H]1C[C@@]2(C[C@@H](c3cn(Cc4ccc(CO)cc4)nn3)N1)OC[C@@H](O)c1cc(Cl)sc12 [Compound 224, (2′S,4S,6′S,7S)-2-chloro-2′-[1-[[4-(hydroxymethyl)phenyl]methyl]triazol-4-yl]-6′-methyl-spiro[4,5-dihydrothieno[2,3-c]pyran-7,4′-piperidine]-4-ol] | – | 50 to 500 | – |
| C[C@H]1C[C@@]2(C[C@@H](c3cn(Cc4ncnc5[nH]ccc45)nn3)N1)OCC(F)(F)c1cc(Cl)sc12 [Compound 350] | 99.0 | < 50 | – |
| Cc1cccc(OCC(O)Cn2cc([C@@H]3C[C@]4(C[C@H](C)N3)OC[C@@H](O)c3cc(Cl)sc34)nn2)c1 (stereo partly shown) [Compound 260] | 99.0 | < 50 | – |
| C[C@H]1C[C@@]2(C[C@@H](c3cn(Cc4cccc(O)c4)nn3)N1)OCC(F)(F)c1cc(Cl)sc12 [Compound 320] | 95.0 | 50 to 500 | – |
| C[C@H]1C[C@@]2(C[C@@H](c3cn(CCC(N)=O)nn3)N1)OCC(F)(F)c1cc(Cl)sc12 [Compound 328] | 100.0 | < 50 | – |
| Cc1ncc(Cn2cc([C@@H]3C[C@]4(C[C@H](C)N3)OCC(F)(F)c3cc(Cl)sc34)nn2)cn1 [Compound 318] | 99.0 | < 50 | – |
| C[C@H]1C[C@@]2(C[C@@H](c3cn(Cc4cccc(O)c4)nn3)N1)OC[C@@H](O)c1cc(Cl)sc12 [Compound 279] | 97.0 | 50 to 500 | – |
| COc1cccc(Cn2cc([C@@H]3C[C@]4(C[C@H](C)N3)OCC(F)(F)c3cc(Cl)sc34)nn2)c1 [Compound 319] | 95.0 | 50 to 500 | – |
| Cc1ccnn1CCn1cc([C@@H]2C[C@]3(C[C@H](C)N2)OC[C@@H](O)c2cc(Cl)sc23)nn1 [Compound 274] | 97.0 | 50 to 500 | – |
| Cc1cc(Cn2cc([C@@H]3C[C@]4(C[C@H](C)N3)OC[C@@H](O)c3cc(Cl)sc34)nn2)ccn1 [Compound 296] | 99.0 | 50 to 500 | – |
| C[C@H]1C[C@@]2(C[C@@H](c3cn(Cc4ccc(CO)cc4)nn3)N1)OCC(F)(F)c1cc(Cl)sc12 [Compound 225, (4-((4-((2S,4S,6S)-2′-chloro-4′,4′-difluoro-2-methyl-4′,5′-dihydrospiro[piperidine-4,7′-thieno[2,3-c]pyran]-6-yl)-1H-1,2,3-triazol-1-yl)methyl)phenyl)methanol] | 97.0 | 50 to 500 | – |
| C[C@H]1C[C@@]2(C[C@@H](c3cn(CCCO)nn3)N1)OCC(F)(F)c1cc(Cl)sc12 [Compound 359] | 98.0 | < 50 | – |
| COCC(O)Cn1cc([C@@H]2C[C@]3(C[C@H](C)N2)OC[C@@H](O)c2cc(Cl)sc23)nn1 (stereo partly shown) [Compound 226] | 100.0 | 50 to 500 | – |
| C[C@H]1C[C@@]2(C[C@@H](c3cn(Cc4ccccn4)nn3)N1)OC[C@@H](O)c1cc(Cl)sc12 [Compound 292] | 99.0 | 50 to 500 | – |
| C#C[C@@H]1C[C@]2(C[C@H](C)N1)OCCc1cc(Cl)sc12 [Compound 221, (2S,4S,6S)-2′-chloro-2-ethynyl-6-methyl-4′,5′-dihydrospiro[piperidine-4,7′-thieno[2,3-c]pyran]] | – | < 50 | – |
| Cc1nc(Cn2cc([C@@H]3C[C@]4(C[C@H](C)N3)OCC(F)(F)c3cc(Cl)sc34)nn2)oc1C [Compound 337] | 99.0 | < 50 | – |
| Cc1cc(C)nc(CCn2cc([C@@H]3C[C@]4(C[C@H](C)N3)OC[C@@H](O)c3cc(Cl)sc34)nn2)c1 [Compound 235] | 100.0 | < 50 | – |
| C[C@H]1C[C@@]2(C[C@@H](c3cn(CCC(N)=O)nn3)N1)OC[C@@H](O)c1cc(Cl)sc12 [Compound 288] | 97.0 | 50 to 500 | – |
| C[C@H]1C[C@@]2(C[C@@H](c3cn(Cc4nc5ncccc5[nH]4)nn3)N1)OCC(F)(F)c1cc(Cl)sc12 [Compound 346] | 99.0 | 50 to 500 | – |
| C[C@H]1C[C@@]2(C[C@@H](c3cn(CCC(C)(C)O)nn3)N1)OC[C@@H](O)c1cc(Cl)sc12 [Compound 252] | 100.0 | < 50 | – |
| C[C@H]1C[C@@]2(C[C@@H](c3cn(CC4CCC4)nn3)N1)OC[C@@H](O)c1cc(Cl)sc12 [Compound 250] | 95.0 | < 50 | – |
| C[C@H]1C[C@@]2(C[C@@H](c3cn(Cc4ccccn4)nn3)N1)OCC(F)(F)c1cc(Cl)sc12 [Compound 332] | 96.0 | 50 to 500 | – |

| Structure (SMILES) | Multi-Tox Assay Max Activity (%) | IC50 [nM] | IC90 [nM] |
| --- | --- | --- | --- |
| Cc1nccn1CCCn1cc([C@@H]2C[C@]3(C[C@H](C)N2)OCC(F)(F)c2cc(Cl)sc23)nn1 [Compound 341] | 98.0 | 50 to 500 | – |
| COc1ccc(Cn2cc([C@@H]3C[C@]4(C[C@H](C)N3)OC[C@@H](O)c3cc(Cl)sc34)nn2)cc1 [Compound 295] | 99.0 | < 50 | – |
| C[C@H]1C[C@@]2(C[C@@H](c3cn(Cc4cnccn4)nn3)N1)OC[C@@H](O)c1cc(Cl)sc12 [Compound 276] | 100.0 | 50 to 500 | – |
| CC(CO)Cn1cc([C@@H]2C[C@]3(C[C@H](C)N2)OC[C@@H](O)c2cc(Cl)sc23)nn1 (stereo partly shown) [Compound 256] | 96.0 | 50 to 500 | – |
| Cc1nccn1CCCn1cc([C@@H]2C[C@]3(C[C@H](C)N2)OC[C@@H](O)c2cc(Cl)sc23)nn1 [Compound 251] | 99.0 | 50 to 500 | – |
| C[C@H]1C[C@@]2(C[C@@H](c3cn(CCC4CCCOC4)nn3)N1)OC[C@@H](O)c1cc(Cl)sc12 (stereo partly shown) [Compound 273] | – | < 50 | – |
| C[C@H]1C[C@@]2(C[C@@H](c3cn(CC4CCS(=O)(=O)C4)nn3)N1)OCC(F)(F)c1cc(Cl)sc12 (stereo partly shown) [Compound 307] | 99.0 | < 50 | – |
| COc1cc(F)cc(Cn2cc([C@@H]3C[C@]4(C[C@H](C)N3)OC[C@@H](O)c3cc(Cl)sc34)nn2)c1 [Compound 293] | 100.0 | < 50 | – |
| C[C@H]1C[C@@]2(C[C@@H](c3cn(CCCS(C)(=O)=O)nn3)N1)OC[C@@H](O)c1cc(Cl)sc12 [Compound 228] | 100.0 | 50 to 500 | – |
| C[C@H]1C[C@@]2(C[C@@H](c3cn(Cc4cccc(CO)c4)nn3)N1)OC[C@@H](O)c1cc(Cl)sc12 [Compound 271] | 97.0 | < 50 | – |
| CC(C)N1CC(Cn2cc([C@@H]3C[C@]4(C[C@H](C)N3)OC[C@@H](O)c3cc(Cl)sc34)nn2)CC1=O (stereo partly shown) [Compound 287] | 96.0 | 50 to 500 | – |
| C[C@H]1C[C@@]2(C[C@@H](c3cn(Cc4cnc5cnccn45)nn3)N1)OC[C@@H](O)c1cc(Cl)sc12 [Compound 243] | 98.0 | 50 to 500 | – |
| C[C@H]1C[C@@]2(C[C@@H](c3cn(CC(F)F)nn3)N1)OC[C@@H](O)c1cc(Cl)sc12 [Compound 283] | – | 50 to 500 | – |
| Cc1ccccc1C(O)Cn1cc([C@@H]2C[C@]3(C[C@H](C)N2)OCC(F)(F)c2cc(Cl)sc23)nn1 (stereo partly shown) [Compound 304] | 99.0 | 50 to 500 | – |
| COCC1(Cn2cc([C@@H]3C[C@]4(C[C@H](C)N3)OCC(F)(F)c3cc(Cl)sc34)nn2)CC1 [Compound 312] | 91.0 | > 500 | > 500 |
| C[C@H]1C[C@@]2(C[C@@H](c3cn(CC4(CO)CC4)nn3)N1)OC[C@@H](O)c1cc(Cl)sc12 [Compound 242] | 97.0 | 50 to 500 | – |
| C[C@H]1C[C@@]2(C[C@@H](c3cn(CC4(CO)CC4)nn3)N1)OCC(F)(F)c1cc(Cl)sc12 [Compound 357] | 99.0 | 50 to 500 | – |
| C[C@H]1C[C@@]2(C[C@@H](c3cn(CC4CCC(=O)NC4)nn3)N1)OC[C@@H](O)c1cc(Cl)sc12 (stereo partly shown) [Compound 254] | 92.0 | > 500 | – |
| C[C@H]1C[C@@]2(C[C@@H](c3cn(Cc4ccccc4S(C)(=O)=O)nn3)N1)OC[C@@H](O)c1cc(Cl)sc12 [Compound 231] | 95.0 | 50 to 500 | – |
| C[C@H]1C[C@@]2(C[C@@H](c3cn(Cc4ccc(C#N)nc4)nn3)N1)OCC(F)(F)c1cc(Cl)sc12 [Compound 352] | 99.0 | < 50 | – |
| C[C@H]1C[C@@]2(C[C@@H](c3cn(Cc4ccc(C#N)nc4)nn3)N1)OC[C@@H](O)c1cc(Cl)sc12 [Compound 236] | 100.0 | < 50 | – |
| C[C@H]1C[C@@]2(C[C@@H](c3cn(Cc4ncnc5[nH]ccc45)nn3)N1)OC[C@@H](O)c1cc(Cl)sc12 [Compound 234] | 100.0 | < 50 | – |
| C[C@H]1C[C@@]2(C[C@@H](c3cn(CC(O)c4ccccc4)nn3)N1)OC[C@@H](O)c1cc(Cl)sc12 (stereo partly shown) [Compound 281] | 99.0 | 50 to 500 | – |
